Structures are written as SMILES. Converted amounts (≈) assume the structure as drawn.

For the assay, the system named is Vaccinia virus. Nature of the assay: Antiviral activity against Vaccinia virus in E6SM cells assessed as reduction of virus-induced cytopathogenicity. The assay is classed as functional, organism-based. The note with it: Orthopoxvirus vaccinia.
Take `O=c1[nH]c(=O)n([C@H]2C[C@H](O)[C@@H](CO)O2)cc1C#CI`: the EC50 was 0.2 µg/mL (≈ 0.529 µM). As for `NC(=O)c1ncn([C@@H]2O[C@H](CO)[C@@H](O)[C@H]2O)n1` [RIBAVIRIN], the EC50 amounted to 20 µg/mL (≈ 81.9 µM). The same measure for `O=c1[nH]c(=O)n([C@H]2C[C@H](O)[C@@H](CO)O2)cc1/C=C/Br` [BRIVUDINE]: 0.2 µg/mL (≈ 0.6 µM); for `CC(=O)OC[C@H]1O[C@@H](n2cc(C#CI)c(=O)[nH]c2=O)[C@@H](OC(C)=O)[C@@H]1OC(C)=O`: more than 10 µg/mL. The same measure for `C[Si](C)(C)C#Cc1cn([C@@H]2O[C@H](CO)[C@@H](O)[C@@H]2O)c(=O)[nH]c1=O`: 7 µg/mL (≈ 20.6 µM). For the compound `C[Si](C)(C)C#Cc1cn([C@H]2C[C@H](O)[C@@H](CO)O2)c(=O)[nH]c1=O`, the EC50 is 0.2 µg/mL (≈ 0.617 µM). On to `Nc1nc2c(ncn2COCCO)c(=O)[nH]1` [ACYCLOVIR], for which the EC50 was more than 400 µg/mL. As for `Nc1nc2c(ncn2COC(CO)CO)c(=O)[nH]1` [GANCICLOVIR], the EC50 was more than 100 µg/mL. As to `C#Cc1cn([C@H]2C[C@H](O)[C@@H](CO)O2)c(=O)[nH]c1=O`, the EC50 worked out at 0.1 µg/mL (≈ 0.396 µM).

Values taken from ChEMBL document CHEMBL1143708, “5-alkynyl analogs of arabinouridine and 2'-deoxyuridine: cytostatic activity against herpes simplex virus and varicella-zoster thymidine kinase gene-transfected cells” (J Med Chem, 2007).
